Laboratory results: patent publication US6337417B1, “N-phenyltetrahydrophthalamic acid derivatives, methods of producing same, and herbicides containing same as effective components” (Central Glass Co., Ltd., priority 1994, dated 2002)

Key:
Type in all cases: in vivo
Set-up in all cases: key: 5: completely killed; 4: seriously injured; 3: considerably injured; 2: somewhat injured; 1: slightly injured; 0: not injured (normally grown)
Details in all cases: 4 weeks after treatment
[1] = tested on: nobie (barnyardgrass, Echinochloa spp.); experiment: Experiment 1 flooded soil treatment: nobie
Source text: (§1) Paddy soil (clay loam) was put into a pot so as to have a surface area of 1/15500 ares. Uniformly mixed seeds of several kinds of weeds, viz., nobie (barnyardgrass, Echinochloa spp.), broad-leaved weeds, hotarui (bulrush, Scirpus juncoides) and tamagayatsuri (small-flowered umbrellaplant, Cyperus difformis), were sown in the surface layer of the soil in each pot, and then paddy rice seedlings at the two- or three-leaved stage were transplanted into each pot to a depth of 2 cm, and water was fed into each pot so as to provide a 3 cm deep water layer on the soil surface. After 3 days, in other words at the initial stage of germination of nobie (barnyardgrass, Echinochloa spp.), a predetermined amount of a selected compound obtained in a manner analogous to Example 8 in the form of diluted aqueous solution was dropped into the water layer in each pot. After that, the pots were kept in a glass chamber to allow the paddy rice and the weeds to grow, and after the lapse of 4 weeks from the treatment with the selected compounds, the herbicidal effects and the degree of injury to the paddy rice were evaluated. In the table, the herbicidal effects and the degree of injury to the paddy rice are indicated by numerical values, which have the following meaning.
(§2) 0: not injured (normally grown)

[2] = tested on: noasagao (blue morningglory, Ipomoea indica); experiment: Experiment 3 foliage treatment: noasagao
Experimental: (§3) Upon seedling stage (two- or three-leaved stage) of ichibi (velvetleaf, Abutilon theophrasti), onamomi (heartleaf cocklebur, Xanthium strumarium) (4L stage), noasagao (blue morningglory, Ipomoea indica) and ooinutade (pale smartweed, Persicaria lapathifolia) which were grown on a cultivated soil put in pots of 1/8850 ares, a selected compound obtained in a manner analogous to Example 8, in suspended wettable powder, was sprayed to each plant. After that, the pots were kept in a glass chamber to allow each plant to grow, and after the lapse of 4 weeks from the treatment with the selected compounds the herbicidal effects were evaluated. The evaluation of the herbicidal effects was similarly conducted as to that of Experiment 1.

broad-leaved weeds = experiment: Experiment 1 flooded soil treatment: broad-leaved weeds
Source text: as §1, §2

[3] = tested on: aobiyu (slender amaranth, Amaranthus viridis); experiment: Experiment 2 foliage treatment: aobiyu
Experimental: (§4) Upon seedling stage (two- or three-leaved stage) of rice, cockspur (Panicum crus-galli), garden radish, aobiyu (slender amaranth, Amaranthus viridis) and mehishiba (henry crabgrass, Digitaria cliaris) which were grown on a cultivated soil put in pots of 1/15500 ares, a selected compound obtained in a manner analogous to Example 8, in suspended wettable powder, was sprayed to each plant. After that, the pots were kept in a glass chamber to allow each plant to grow, and after the lapse of 4 weeks from the treatment with the selected compounds the herbicidal effects were evaluated. The evaluation of the herbicidal effects was similarly conducted as to that of Experiment 1.

[4] = tested on: onamomi (heartleaf cocklebur, Xanthium strumarium); experiment: Experiment 3 foliage treatment: onamomi
Experimental: as §3

[5] = tested on: mehishiba (henry crabgrass, Digitaria cliaris); experiment: Experiment 2 foliage treatment: mehishiba
Experimental: as §4

[6] = tested on: tamagayatsuri (small-flowered umbrellaplant, Cyperus difformis); experiment: Experiment 1 flooded soil treatment: tamagayatsuri
Source text: as §1, §2

[7] = tested on: ichibi (velvetleaf, Abutilon theophrasti); experiment: Experiment 3 foliage treatment: ichibi
Experimental: as §3

rice = experiment: Experiment 2 foliage treatment: rice
Experimental: as §4

[8] = tested on: hotarui (bulrush, Scirpus juncoides); experiment: Experiment 1 flooded soil treatment: hotarui
Source text: as §1, §2

[9] = tested on: cockspur (Panicum crus-galli); experiment: Experiment 2 foliage treatment: cockspur
Experimental: as §4

garden radish = experiment: Experiment 2 foliage treatment: garden radish
Experimental: as §4

paddy rice = experiment: Experiment 1 flooded soil treatment: injury to paddy rice
Source text: as §1, §2

[10] = tested on: ooinutade (pale smartweed, Persicaria lapathifolia); experiment: Experiment 3 foliage treatment: ooinutade
Experimental: as §3

Row | Structure (SMILES) | Herbicidal Effect nobie ([1]; 12.5 g/10a) | Herbicidal Effect nobie ([1]; 25 g/10a) | Herbicidal Effect noasagao ([2]; 4 g/10a) | Herbicidal Effect noasagao ([2]; 8 g/10a) | Herbicidal Effect broad-leaved weed (broad-leaved weeds; 12.5 g/10a) | Herbicidal Effect broad-leaved weed (broad-leaved weeds; 25 g/10a) | Herbicidal Effect aobiyu ([3]; 40 g/10a) | Herbicidal Effect aobiyu ([3]; 80 g/10a) | Herbicidal Effect onamomi ([4]; 4 g/10a) | Herbicidal Effect onamomi ([4]; 8 g/10a) | Herbicidal Effect mehishiba ([5]; 40 g/10a) | Herbicidal Effect mehishiba ([5]; 80 g/10a) | Herbicidal Effect tamagayatsuri ([6]; 12.5 g/10a) | Herbicidal Effect tamagayatsuri ([6]; 25 g/10a) | Herbicidal Effect ichibi ([7]; 4 g/10a) | Herbicidal Effect ichibi ([7]; 8 g/10a) | Herbicidal Effect rice (rice; 40 g/10a) | Herbicidal Effect rice (rice; 80 g/10a) | Herbicidal Effect hotarui ([8]; 12.5 g/10a) | Herbicidal Effect hotarui ([8]; 25 g/10a) | also measured
1 | CCCOC(=O)C1=C(C(=O)N(C(C)=O)c2cc(SCC(=O)OC)c(Cl)cc2F)CCCC1 [compound 13] | 5 | 5 | 5 | 5 | 5 | 5 | 5 | 5 | 5 | 5 | 1 | 1 | 5 | 5 | 5 | 5 | 1 | 1 | 4 | 4 | Herbicidal Effect cockspur ([9]; 40 g/10a): 2; Herbicidal Effect cockspur ([9]; 80 g/10a): 2; Herbicidal Effect garden radish (garden radish; 40 g/10a): 5; Herbicidal Effect garden radish (garden radish; 80 g/10a): 5; Injury of Paddy (paddy rice; 12.5 g/10a): 0; Injury of Paddy (paddy rice; 25 g/10a): 0.5; Herbicidal Effect ooinutade ([10]; 4 g/10a): 5; Herbicidal Effect ooinutade ([10]; 8 g/10a): 5
2 | COC(=O)C1=C(C(=O)N(C(C)=O)c2cc(SC(C)C(=O)OC)c(Cl)cc2F)CCCC1 (centres unmarked) [compound 20, N-acetyl-N-[4-chloro-2-fluoro-5-(1-methoxycarbonylethylthio)phenyl]-3,4,5,6-tetrahydrophthalamic acid methyl ester] | 5 | 5 | 4 | 5 | 5 | 5 | 5 | 5 | 4 | 4 | 1 | 1 | 5 | 5 | 5 | 5 | 1 | 1 | 5 | 5 | Herbicidal Effect cockspur ([9]; 40 g/10a): 2; Herbicidal Effect cockspur ([9]; 80 g/10a): 2; Herbicidal Effect garden radish (garden radish; 40 g/10a): 5; Herbicidal Effect garden radish (garden radish; 80 g/10a): 5; Injury of Paddy (paddy rice; 12.5 g/10a): 0.5; Injury of Paddy (paddy rice; 25 g/10a): 0.5; Herbicidal Effect ooinutade ([10]; 4 g/10a): 5; Herbicidal Effect ooinutade ([10]; 8 g/10a): 5
